Laboratory results as given in US4806532A, “Inhibition of epithelial phosphate transport” (Mayo Foundation for Medical Education and Research, priority 1985, dated 1989).
Where a name gives a salt, the structure may show the parent alone.

Tests used:
Format in all cases: biochemical
Na-Pi cotransporter = molecular target: T1, Na-Pi cotransporter (Mus musculus, UniProt Q60825); assay: Na+-gradient-dependent 32Pi uptake by renal BBMV, mouse
T1 construct: were prepared from renal cortices of mongrel dogs, albino mice and New Zealand albino rabbits; from tissue; host or cells: albino mouse renal cortex, brush border membrane vesicles
T1 sequence (Q60825 1-637): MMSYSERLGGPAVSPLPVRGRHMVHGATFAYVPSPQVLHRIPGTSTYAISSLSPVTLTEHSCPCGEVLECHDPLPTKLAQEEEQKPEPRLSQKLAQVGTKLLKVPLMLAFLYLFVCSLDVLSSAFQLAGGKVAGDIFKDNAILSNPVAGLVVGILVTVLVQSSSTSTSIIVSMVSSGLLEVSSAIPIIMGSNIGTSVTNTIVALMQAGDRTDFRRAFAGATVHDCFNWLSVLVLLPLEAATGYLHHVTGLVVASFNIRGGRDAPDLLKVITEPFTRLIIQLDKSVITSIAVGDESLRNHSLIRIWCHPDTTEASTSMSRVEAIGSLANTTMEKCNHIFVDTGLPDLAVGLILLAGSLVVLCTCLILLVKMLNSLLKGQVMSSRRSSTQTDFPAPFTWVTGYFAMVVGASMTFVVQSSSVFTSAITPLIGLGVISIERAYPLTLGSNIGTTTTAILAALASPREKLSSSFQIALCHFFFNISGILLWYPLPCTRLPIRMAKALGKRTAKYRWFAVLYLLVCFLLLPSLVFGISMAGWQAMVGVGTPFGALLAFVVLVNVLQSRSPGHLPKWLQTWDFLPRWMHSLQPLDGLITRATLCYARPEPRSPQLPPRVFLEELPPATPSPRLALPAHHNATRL
Protocol: The brush border membrane vesicles (BBMV) were prepared from renal cortical tissue of adult male Sprague-Dawley rats of an average body weight of about 220 grams. Rats were fed ad libitum standard rat chow containing 0.7% Pi and had free access to distilled water. Rats were sacrificed under anesthesia and dissected renal cortical tissue was used for preparation of BBMV fraction by the divalent cation-precipitation procedure, employed and described in detail in J. Clin. Invest., 67, 1347 (1981) and J. Biol. Chem., 258, 5695 (1983), with the following modifications: (a) MgCl2 instead of CaCl2 was added to crude homogenate (final concentration 10 mM MgCl2) to precipitate membranes other than BBMV; (b) in the final step, BBMV were washed and equilibrated in a medium of pH=7.5, instead of pH=8.5. The enrichment and specific activities of typical BBM enzymes alkaline phosphatase (APases), γ-glutyamyl transferase (γ-GTT), leucineaminopeptidase (LAP) and maltase with use of these modifications were similar as in BBMV fractions prepared in our previous studies. As a final step in the preparative procedure, the BBMV fraction was washed and resuspended in a medium containing 300 mM mannitol and 5 mM Tris-HEPES adjusted to pH=t.5, referred to as "MTH-medium," unless specified otherwise. The analogous BBMV fractions, using the same procedure, were prepared from renal cortices of mongrel dogs, albino mice and New Zealand albino rabbits.
The BBMV uptake of ^32 Pi, D-[^3 H]-glucose, L-[^3 H]-proline and ^22 Na^+ was measured by means of a rapid filtration technique, as described in J. Clin. Invest., 67, 1347 (1981) and Am. J. Physiol., 246, F133-F139 (1984). Also, unless specified otherwise, the medium for the solute uptake assay consisted of following compounds (in final concentrations): 100 mM mannitol, 100 mM NaCl (or 100 mM KC1) and 5 mM Tris-HEPES (pH=7.5) and eitehr 0.1 mM K2 H^32 PO4, or 0.05 mM D-[^3 H]-glucose, or 0.025 mM L-[^3 H]-proline. IN the ^22 Na^+ uptake studies, the assay medium contained 100 mM ^22 NaCl (^22 NaCl about […] per tube), 100 mM mannitol and 5 mM Tris-HEPES (pH 7.5).
In most experiments, the Na^+ -gradient-dependent ^32 Pi uptake in the concentrative "uphill" phase was measured at 20 seconds period. Since Na^+ -independent Pi uptake in this time period was quantitatively minor component (<5%) of the Na^+ -gradient-dependent Pi uptake, it was not routinely subtracted.

BBM enzymes APase = molecular target: T2, BBM enzymes APase (Rattus norvegicus, UniProt P08289); assay: Effect on BBM enzyme APase (data not shown)
T2 construct: from tissue; host or cells: renal brush border membrane vesicles (rat inferred)
T2 sequence (P08289 18-502 limits assumed): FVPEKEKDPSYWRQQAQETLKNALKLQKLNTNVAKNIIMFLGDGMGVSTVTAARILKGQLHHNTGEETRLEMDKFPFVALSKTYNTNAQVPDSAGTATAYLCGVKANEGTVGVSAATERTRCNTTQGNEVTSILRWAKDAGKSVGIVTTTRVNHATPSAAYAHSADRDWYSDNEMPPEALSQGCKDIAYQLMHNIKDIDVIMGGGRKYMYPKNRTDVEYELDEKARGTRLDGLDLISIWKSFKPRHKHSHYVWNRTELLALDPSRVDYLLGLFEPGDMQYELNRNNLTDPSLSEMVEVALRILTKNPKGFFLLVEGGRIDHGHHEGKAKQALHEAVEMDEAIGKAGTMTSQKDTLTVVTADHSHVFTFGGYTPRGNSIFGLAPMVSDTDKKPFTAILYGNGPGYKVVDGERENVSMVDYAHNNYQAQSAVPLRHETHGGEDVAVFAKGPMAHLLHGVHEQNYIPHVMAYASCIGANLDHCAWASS

(Na-K)ATPase = molecular target: T3, (Na-K)ATPase (Rattus norvegicus, UniProt P06685); assay: Effect on BaLM enzyme (Na-K)ATPase (data not shown)
T3 construct: from tissue; host or cells: basolateral membrane, kidney (tissue and rat inferred)

SMILES: O=C(O)P(=O)(O)O [TPFA, Phosphonoformic acid, trisodium salt hexahydrate]
- 32Pi-uptake 120 min (Na-Pi cotransporter; 1 mM TPFA, control 368 ± 7): 390 ± 74 pmoles Pi/mg protein/time
- 32Pi-uptake 20 sec (Na-Pi cotransporter; 1 mM TPFA, control 824 ± 9): 299 ± 8 pmoles Pi/mg protein/time
- 32Pi-uptake 20 sec (Na-Pi cotransporter; 5 mM TPFA): 97 ± 7 pmoles Pi/mg protein/time
- 32Pi-uptake 120 min (Na-Pi cotransporter; 5 mM TPFA): 404 ± 12 pmoles Pi/mg protein/time
- inhibition at 1000 µM (Na-Pi cotransporter; 20 s, 1 mM TPFA, read-out: percent decrease of 20 sec 32Pi-uptake relative to control value): 63.7%
- inhibition at 5000 µM (Na-Pi cotransporter; 20 s, 5 mM TPFA, read-out: percent decrease of 20 sec 32Pi-uptake relative to control value): 88.2%
- effect on BBM enzyme APase (BBM enzymes APase): without inhibitory effect
- effect on BaLM enzyme (Na-K)ATPase ((Na-K)ATPase): without inhibitory effect
